Laboratory results: paper PMC9775191, “A Subset Screen of the Compounds Australia Scaffold Library Identifies 7-Acylaminodibenzoxazepinones as Potent and Selective Hits for Anti-Giardia Drug Discovery” (Biomedicines, 2022)

Tested on: G. duodenalis BRIS/91/HEPU/1279
Test: Primary Giardia screen at 10 µM (live-cell imaging, automated counting)
Assay type: cell-based, Giardia duodenalis
Details: for % Inhibition n=1 48h / % Inhibition n=1 24h: first singlicate assay; for % Inhibition n=2 24h / % Inhibition n=2 48h: re-assessment
Method: Each compound was assessed in singlicate, at a final concentration of 10 μM (0.4 μL of a 5 mM stock; diluted to a final volume of 200 μL in culture medium; 0.2% DMSO). […] Plates were incubated in sealed chambers filled with 3% O2, 5% CO2 in N2 and growth was assessed at 24 and 48 h using live cell imaging and automated counting as previously described. Growth inhibition was calculated by subtracting media only background counts and determining percentage growth relative to vehicle (0.2% DMSO) controls. The reliability of these assays was assessed by calculating Z’ factors for each plate as previously described.

| Compound | % Inhibition n=1 48h | other results |
| --- | --- | --- |
| Cc1nc(N2CCCCC2)cc(N2CCN(C(=O)c3cccc(F)c3)CC2)n1 [SN00786431] | 7.0% | – |
| COc1cccc(C(=O)NC2(C(F)(F)F)C(=O)N(Cc3ccccc3)C(C)=C2C(C)=O)c1 (centres unmarked) [SN00784101] | 2.9% | – |
| Cc1ccc(-c2nc3ccccc3n2Cc2cccc(F)c2)o1 [SN00788939] | 16.3% | – |
| Cc1nn(CCC(=O)Nc2cccc(F)c2)c(=O)c2noc(C)c12 [SN00778869] | 21.9% | Average % Inhibition 24h: 0.0%; % Inhibition n=1 24h: 0.0%; % Inhibition n=2 24h: 0.0%; Average % Inhibition 48h: 40.9%; % Inhibition n=2 48h: 59.9% |
| Cc1ccc(C(=O)N2CCC(Oc3ncccc3C(=O)N3CCCCC3)C2)c(C)c1 (centres unmarked) [SN00800036] | 0.0% | – |
| COCCN1CCN(c2nc(-c3ccncc3)nc3c2CCC3)CC1 [SN00781610] | 15.0% | – |
| O=C(N[C@H]1C[C@@H]2C[C@H]1N(C(=O)Nc1ccc3c(c1)CCC3)C2)c1ccccc1 [SN00800945] | 6.6% | – |
| CCS(=O)(=O)N1CCC2(CC1)OC(=O)C(C)=C2C(=O)Nc1ccc(C)cc1C [SN00791146] | 0.0% | – |
| O=C(Nc1cc(Cl)ccc1O)c1cc(-c2ccc(F)cc2)no1 [SN00787460] | 3.6% | – |
| O=C(NCC1CCCO1)Nc1ccc2sc(NS(=O)(=O)c3ccccc3)nc2c1 (centres unmarked) [SN00797600] | 23.5% | – |
| Cc1c(C)n(-c2ccccc2)c2ncnc(N3CCC(C)CC3)c12 [SN00789013] | 35.2% | – |
| O=C(C1CCCN(c2cnccn2)C1)N1CCN(Cc2cccs2)CC1 (centres unmarked) [SN00769722] | 17.2% | – |
| CCN(CC)S(=O)(=O)c1ccc2c(c1)cc(C(=O)NC1CCCC1)n2C [SN00792862] | 0.0% | – |
| CCCOc1ccc(C2OCCn3c(-c4ccc(OC)cc4)c4c(=O)n(C)c(=O)n(C)c4c32)cc1 (centres unmarked) [SN00786016] | 14.8% | – |
| Cc1ccc(CNc2nc(-c3ccco3)nn2C(=O)c2cccc([N+](=O)[O-])c2)cc1 [SN00786222] | 6.6% | – |
| Cc1ccnc(N2CCCC(C(=O)N3CC=C(c4ccccc4)CC3)C2)n1 (centres unmarked) [SN00795039] | 57.6% | Average % Inhibition 24h: 18.0%; % Inhibition n=1 24h: 29.9%; % Inhibition n=2 24h: 6.1%; Average % Inhibition 48h: 46.1%; % Inhibition n=2 48h: 34.6% |
| CC(=O)c1c(C)[nH]c(C(=O)N2CCCC2c2nc(-c3cccc(C(F)(F)F)c3)c[nH]2)c1C (centres unmarked) [SN00772247] | 17.0% | – |
| CC(=O)N1CCCN(C(=O)c2cc(C3CC3)[nH]n2)CC1 [SN00778148] | 1.1% | – |
| O=C(CN1C(=O)NC2(CCc3ccccc32)C1=O)N1CCCC(c2nnc3ccccn23)C1 (centres unmarked) [SN00778393] | 0.0% | – |
| O=S(=O)(c1ccc(Cl)cc1)N1CCC(c2nc(-c3c(Cl)cccc3Cl)no2)CC1 [SN00779695] | 11.2% | – |
| Fc1ccc(-c2cc(C(F)(F)F)nc(NCc3ccco3)n2)cc1 [SN00784252] | 2.3% | – |
| CCN(CC)S(=O)(=O)c1ccc(Nc2ccn(CCc3ccccn3)n2)c([N+](=O)[O-])c1 [SN00777378] | 39.2% | Average % Inhibition 24h: 10.7%; % Inhibition n=1 24h: 21.3%; % Inhibition n=2 24h: 0.0%; Average % Inhibition 48h: 25.2%; % Inhibition n=2 48h: 11.3% |
| CCN1CCN(CCCNC(=O)c2cc3occc3c(Nc3ccc(OC)cc3)n2)CC1 [SN00790822] | 14.5% | – |
| C/C(=C/C(=O)N1CCN(C(=O)c2ccc3[nH]cnc3c2)CC1)C1CC1 [SN00774586] | 5.9% | – |
| CCN1C(=O)C(=O)N(Cc2coc(-c3ccc(C)cc3)n2)C1=O [SN00778011] | 28.7% | – |

| Compound | % Inhibition n=1 48h | other results |
| --- | --- | --- |
| Cc1ncc2c(n1)CN(C(C)c1nc(-c3cccs3)no1)CC2 (centres unmarked) [SN00807951] | 13.5% | – |
| CCC(=O)N1CCc2c(sc3ncnc(N(C)C4CCN(C)CC4)c23)C1 [SN00801485] | 0.0% | – |
| CN(Cc1ccccc1)C(=O)c1cccc2c1CCN2C(=O)Nc1ccccc1 [SN00799558] | 0.0% | – |
| CCC(C)NC(=O)CC1Sc2ncccc2N(C)C1=O (centres unmarked) [SN00799120] | 11.7% | – |
| CCn1cc2c(n1)-c1c(oc(C(=O)Nc3ccc(F)cc3)c1C)CC2 [SN00787412] | 6.9% | – |
| O=C(Nc1ccc2nc(N3CCCN(c4ncccn4)CC3)cc(C(=O)O)c2c1)c1ccccc1F [SN00790270] | 0.0% | – |
| Cc1cc(-c2cc(S(=O)(=O)N(CCN(C)C)Cc3cccs3)c(C)s2)[nH]n1 [SN00798340] | 13.6% | – |
| O=C(CCn1ccn2nc(-c3ccccc3Cl)cc2c1=O)NCc1ccc(F)cc1 [SN00799415] | 0.0% | – |
| Cc1nn(C)c(N2CCN(C(C)c3nc4ccccc4s3)CC2)c1[N+](=O)[O-] (centres unmarked) [SN00772279] | 10.6% | – |
| COc1ccc(-c2cccc(NC(=O)c3ccccc3Br)c2)nn1 [SN00799416] | 16.0% | – |
| CN(C)C(=O)Cc1nc(CN2CCc3c(ncn3C)C2)cs1 [SN00781984] | 0.0% | – |
| CC1CN(c2nc3c(c(=O)[nH]c(=O)n3C)n2CC(=O)O)CC(C)O1 (centres unmarked) [SN00776554] | 4.6% | – |
| COCC1CN(C(=O)c2ccc(OC)cc2)CC12CCOCC2 (centres unmarked) [SN00801332] | 24.3% | – |
| COc1ccc(Cn2c(=O)c3nccnc3n(Cc3cccc(C)c3)c2=O)cc1 [SN00789526] | 0.0% | – |
| CC(C)CCNC(=O)C1(C)CCC(=O)N1CCCN1CCN(c2cccc(Cl)c2)CC1 (centres unmarked) [SN00784585] | 25.4% | – |
| COCC(=O)N1CCc2c(c(COCc3ccc(C)cc3)nn2C)C1 [SN00796424] | 0.0% | – |
| c1ccc2sc(N3CCCC3c3nnc4n3CCCCC4)nc2c1 (centres unmarked) [SN00771886] | 12.0% | – |
| CCCNC(=O)c1cncc(-c2cccc(NC(=O)CC)c2)c1 [SN00799189] | 0.0% | – |
| O=C(Nc1ccc(N2CCn3c(nc4cc(Cl)ccc43)C2)cc1)NC1CCCCC1 [SN00786562] | 10.0% | – |
| Cc1c(C(=O)N2CCCCC2)c(S(=O)(=O)N2CCN(c3ccccn3)CC2)c(C)n1C [SN00791445] | 0.0% | – |
| CCN1c2cc(C)ccc2-n2cccc2C12CCN(S(=O)(=O)c1ccc(C)cc1)CC2 [SN00785371] | 10.4% | – |
| CC1CCc2nn(CC(=O)NC(C)c3ccccc3)cc2C1 (centres unmarked) [SN00785614] | 0.0% | – |
| CCc1nnc2sc(-c3ccc(CNC(=O)c4ccc(Br)o4)cc3)nn12 [SN00794046] | 48.2% | – |
| CC(NC(=O)C1CCOCC1)c1nc(-c2cccnc2)cs1 (centres unmarked) [SN00769908] | 0.0% | – |
| COc1ccccc1OCCNC(=O)Cn1ccc2c(c(C)nn2-c2ccccc2)c1=O [SN00797916] | 27.1% | – |

| Compound | % Inhibition n=1 48h | other results |
| --- | --- | --- |
| COC(=O)C(C)n1cnc2c(nnn2Cc2ccc(C)cc2)c1=O (centres unmarked) [SN00802538] | 3.2% | – |
| COc1cc(-c2noc(-c3cc(C4CC4)n[nH]3)n2)cc(OC)c1OC [SN00779739] | 13.7% | – |
| Cc1cc(N2CCC(C(=O)N3CCN(c4ccc(F)cc4)CC3)CC2)n2nc(-c3ccccc3)cc2n1 [SN00795072] | 0.0% | – |
| CCOC(=O)c1ccc(Nc2c(-c3ccccc3)nc3[nH]cnn23)cc1 [SN00794007] | 0.0% | – |
| Cc1ncccc1CNCC1CN(C2CC2)CCO1 (centres unmarked) [SN00783283] | 14.5% | – |
| Cc1cccc(NC(=O)Nc2cc(F)c3[nH]c(=O)ccc3c2)c1C [SN00795412] | 0.0% | – |
| CC(=O)C1=C(C)NC(=O)NC1c1ccc(Cl)cc1 (centres unmarked) [SN00783317] | 2.8% | – |
| Cc1ccc2c(c1)n(Cc1ccc(Cl)cc1)c(=O)c1nc(C(=O)NCCc3cccs3)nn12 [SN00794982] | 29.9% | – |
| CC1(C(=O)NCc2ccc(F)cc2)Cn2nc(-c3ccco3)cc2C(=O)N1Cc1ccccc1 (centres unmarked) [SN00787370] | 13.6% | – |
| O=C1O[C@@H]2C[C@H]3C[C@@H]2[C@@H]1[C@H]3C(=O)Nc1ccc(C(=O)N2CC=C(c3ccccc3)CC2)cc1 [SN00785926] | 11.8% | – |
| Cc1nnc2sc(-c3ccc(CNC(=O)c4cccc(Br)c4)cc3)nn12 [SN00794033] | 41.7% | – |
| Cc1cccc(-c2noc(Cn3cccn3)n2)c1 [SN00782358] | 0.0% | – |
| CCN(c1cccc(C)c1)S(=O)(=O)c1cc(-c2nc(C)c(C)s2)sc1C [SN00797239] | 10.7% | – |
| CCCc1cc(=O)n2nc(N(C)CC(=O)NCCCN3CCCC3=O)sc2n1 [SN00785642] | 4.1% | – |
| O=C(Cn1nc2n(c1=O)CCCC2)NCc1ccccc1Br [SN00801654] | 6.0% | – |
| CCC1(N2CCN(C)CC2)CCN(S(=O)(=O)c2ccccc2)C1 (centres unmarked) [SN00802274] | 2.6% | – |
| CCCn1nc2c(cc1=O)CN(Cc1nc(-c3ccco3)no1)CC2 [SN00773497] | 0.0% | – |
| CCOC(=O)CNC(=O)N1Cc2c(C)nn(-c3ccccc3)c2-n2cccc2C1c1cccc(F)c1 (centres unmarked) [SN00792341] | 8.0% | – |
| O=C(CS(=O)(=O)c1ccc2c(c1)S(=O)(=O)N=CN2)Nc1ccccc1 [SN00792172] | 15.6% | – |
| COc1ccc(CNC(=O)c2c(C)sc3cc(-c4ccccc4)oc23)cc1 [SN00796298] | 29.4% | – |
| Cc1ccc(-n2nnc(-c3nc(-c4ccc5c(c4)OCO5)no3)c2N)cc1 [SN00787754] | 0.0% | – |
| COc1ccc(OC)c(NC(=O)C2CC(=O)N(c3cccc(NC(C)=O)c3)C2)c1 (centres unmarked) [SN00797576] | 0.0% | – |
| CCN(CC)CCN1C(=O)C(O)=C(C(=O)c2cccs2)C1c1ccc(C)o1 (centres unmarked) [SN00776616] | 15.0% | – |
| N/C(=N/OCc1ncc(-c2cccs2)o1)c1ccc(Oc2ccc(F)cc2)nc1 [SN00781212] | 41.6% | – |
